The values below come from patent US9029409B2, “Isoxazolines as therapeutic agents” (AbbVie Inc., priority 2011, dated 2015).

SMILES strings stand for the structures. Where only a bound is given, the exact number is not on record here.

The assay deals with T1, recombinant human MMP13 catalytic domain (CD) (Homo sapiens, UniProt P45452).
T1 construct: catalytic domain (CD) construct encompassing residues 20-274 (SWISS-PROT P45452); made in house
The experiment in a line: MMP-13 catalytic domain FRET enzyme assay. Type of assay: biochemical. The following applies: recombinant human MMP-13 catalytic domain. A digest of the protocol: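 Human MMP-13 catalytic domain (res 20-274, E. coli-expressed), 0.4 nM, cleaving FRET peptide (0.25 μM) in Tris pH 7.5/CaCl2/NaCl/Brij 35, 5% DMSO, 60 min RT; EDTA-quenched, fluorescence 485/535 nm. IC50 from sigmoidal fit of % inhibition. Some compounds also run on APMA-activated full-length MMP13 (2 nM).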

As for `COc1ccc(CNC(=O)c2cc(C3=NOC(c4ccccc4)C3)nc(C)n2)cc1` (stereo not shown), the IC50 lay within 10 to 100 nM.

Take `COc1cc(CNC(=O)c2cc(C3=NOC(c4ccncc4)C3)nc(C)n2)ccc1F` (stereo not shown): the IC50 was < 10 nM. In the case of `COc1cc(CNC(=O)c2cc(C3=NOC(c4ccc(CN5CCS(=O)(=O)CC5)cc4)C3)nc(C)n2)ccc1F` (stereo not shown), the IC50 is < 10 nM. In the case of `COc1cc(CNC(=O)c2cc(C3=NOC(c4ccc(=O)n(CC(=O)N(C)C)c4)C3)nc(C)n2)ccc1F` (stereo not shown) it was 10 to 100 nM; in that of `Cc1nc(C(=O)NCc2ccc3c(c2)NC(=O)CO3)cc(C2=NOC(c3ccc(=O)n(C)c3)C2)n1` (stereo not shown), < 10 nM; in that of `COc1cc(CNC(=O)c2cc(C3=NOC(c4ccc(=O)n(CC(=O)N(C)OC)c4)C3)nc(C)n2)ccc1F` (stereo not shown), < 10 nM. Take `CNC(=O)Cn1cc(C2CC(c3cc(C(=O)NCc4ccc(F)c(OC)c4)nc(C)n3)=NO2)cc(Cl)c1=O` (stereo not shown): the IC50 is < 10 nM. In the case of `COc1cccc(C2CC(c3cc(C(=O)NCc4ccc(F)c(OC)c4)nc(C)n3)=NO2)n1` (stereo not shown), the half-maximal inhibitory concentration (IC50) was in the range of 10 to 100 nM. In the case of `COc1cc(CNC(=O)c2cc(C3=NOC(c4ccc(=O)n(C5CC5)n4)C3)nc(C)n2)ccc1F` (stereo not shown) it was 10 to 100 nM.

As to `COc1cc(CNC(=O)c2cc(C3=NOC(c4ccn(C5CC5)c(=O)c4)C3)nc(C)n2)ccc1F` (stereo not shown), the IC50 lay in the range of 10 to 100 nM. With `COc1cc(CNC(=O)c2cc(C3=NOC(c4ccn(CC(=O)N(C)C)c(=O)c4)C3)nc(C)n2)ccc1F` (stereo not shown), the IC50 is 10 to 100 nM.

For `CC(=O)N[C@H]1CC[C@H]([C@@H]2CC(c3cc(C(=O)NCc4ccc5c(c4)NC(=O)CO5)nc(C)n3)=NO2)CC1`, the half-inhibitory concentration (IC50) was < 10 nM. As to `CC(=O)N[C@H]1CC[C@H]([C@H]2CC(c3cc(C(=O)NCc4ccc5c(c4)NC(=O)CO5)nc(C)n3)=NO2)CC1`, the IC50 was < 10 nM.

Regarding `CNC(=O)Cn1nc(C2CC(c3cc(C(=O)NCc4ccc(F)c(OC)c4)nc(C)n3)=NO2)ccc1=O` (stereo not shown), the IC50 was 10 to 100 nM. In the case of `Cc1nc(C(=O)NCc2ccc(=O)n(C)c2)cc(C2=NO[C@H]([C@H]3CO[C@H](CO)CO3)C2)n1` it was 10 to 100 nM. In the case of `Cc1nc(C(=O)NCc2ccc(=O)n(C)c2)cc(C2=NO[C@@H]([C@H]3CO[C@H](CO)CO3)C2)n1` it was 100 to 1000 nM; in that of `Cc1nc(C(=O)NCc2ccc3c(c2)NC(=O)CO3)cc(C2=NOC([C@H]3CC[C@H](NC(=O)[C@H](C)O)CC3)C2)n1` (stereo partly shown), < 10 nM. As for `COc1cc(CNC(=O)c2cc(C3=NOC(c4cc(Cl)c(=O)n(C5CC5)c4)C3)nc(C)n2)ccc1F` (stereo not shown), the IC50 is < 10 nM. In the case of `COc1cc(CNC(=O)c2cc(C3=NO[C@H](c4ccc(=O)n(C5CC5)c4)C3)nc(C)n2)ccc1F` it was < 10 nM. With `COc1cc(CNC(=O)c2cc(C3=NO[C@@H](c4ccc(=O)n(C5CC5)c4)C3)nc(C)n2)ccc1F` the figure was 10 to 100 nM; with `COc1cc(CNC(=O)c2cc(C3=NOC(c4ccc(=O)n(CC(=O)N(C)C)n4)C3)nc(C)n2)ccc1F` (stereo not shown), 10 to 100 nM; with `Cc1nc(C(=O)NCc2ccc3c(c2)NC(=O)CO3)cc(C2=NOC(c3ccc(=O)n(C4CC4)c3)C2)n1` (stereo not shown), < 10 nM. On to `COc1cc(CNC(=O)c2cc(C3=NOC(c4ccc(=O)n(CC(=O)NC5CC5)c4)C3)nc(C)n2)ccc1F` (stereo not shown), for which the IC50 was < 10 nM.

In the case of `COc1cc(CNC(=O)c2cc(C3=NOC(c4ccccc4)C3)c(=O)n(C)n2)ccc1F` (stereo not shown), the concentration for half-maximal inhibition (IC50) was in the range of 10 to 100 nM.

On to `COc1cc(CNC(=O)c2cc(C3=NOC(c4ccn(CC(=O)N(C)OC)c(=O)c4)C3)nc(C)n2)ccc1F` (stereo not shown), for which the IC50 lay within 10 to 100 nM.

Turning to `COc1cc(CNC(=O)c2cc(C3=NOC(c4ccn(CC(=O)NC(C)C)c(=O)c4)C3)nc(C)n2)ccc1F` (stereo not shown), the half-inhibitory concentration (IC50) lay in the range of 10 to 100 nM. `Cc1nc(C(=O)NCc2ccc3c(c2)NC(=O)CO3)cc(C2=NO[C@H]([C@H]3CC[C@H](NC(=O)[C@H](C)O)CC3)C2)n1`: the IC50 was < 10 nM. In the case of `Cc1nc(C(=O)NCc2ccc3c(c2)NC(=O)CO3)cc(C2=NO[C@@H]([C@H]3CC[C@H](NC(=O)[C@H](C)O)CC3)C2)n1` it was < 10 nM.
